Experimental data reported in article PMC6085657, “DNA display of fragment pairs as a tool for the discovery of novel biologically active small molecules” (Chemical Science, 2014).
Where “and” joins values, the source holds several entries; their conditions need not be identical. Equal entries are not always repeated. Entries after “also recorded” stand apart in the source; their conditions may differ. Where two headings read alike, the source gives them in different places.

Assays:
Hsp70-GST [1] = molecular target: T1, Hsp70-GST (Homo sapiens, UniProt P0DMV8); assay: Microarray-based screen of the focused library against Hsp70-GST (fluorescence, anti-GST DyLight 649); format: binding; settings: fluorescence intensity on the microarray, mean of four spots, SD between 5% and 10%; PNA-tagged library member
T1 construct: purchased Signal Chem H34-54G
T1 sequence (P0DMV8 whole entry): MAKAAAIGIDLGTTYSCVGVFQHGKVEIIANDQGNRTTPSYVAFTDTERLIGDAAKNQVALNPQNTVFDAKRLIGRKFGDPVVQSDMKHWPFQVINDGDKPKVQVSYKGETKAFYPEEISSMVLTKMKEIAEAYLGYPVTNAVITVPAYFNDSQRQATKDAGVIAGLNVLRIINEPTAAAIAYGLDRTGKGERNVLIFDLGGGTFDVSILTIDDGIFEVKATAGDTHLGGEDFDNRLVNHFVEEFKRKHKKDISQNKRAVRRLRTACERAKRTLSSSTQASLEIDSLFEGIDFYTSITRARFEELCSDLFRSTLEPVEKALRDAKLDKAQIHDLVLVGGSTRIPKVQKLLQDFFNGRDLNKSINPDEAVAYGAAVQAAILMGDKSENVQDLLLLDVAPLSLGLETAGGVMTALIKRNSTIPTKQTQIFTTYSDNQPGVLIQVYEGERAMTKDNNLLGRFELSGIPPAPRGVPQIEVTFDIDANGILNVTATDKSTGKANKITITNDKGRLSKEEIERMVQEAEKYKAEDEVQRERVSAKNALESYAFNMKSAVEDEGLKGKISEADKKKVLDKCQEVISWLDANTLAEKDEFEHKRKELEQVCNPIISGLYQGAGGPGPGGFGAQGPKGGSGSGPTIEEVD
Excerpt: A microarray pairing 125 biologically validated fragments[11] (FDA-approved drugs, bioactive natural products or fragments thereof) with a library of 500 heterocycles was used as a preliminary screen.[6] The microarray contained 62 500 unique DNA sequences that combinatorially paired both fragment libraries. […] The result from this screen with Hsp70 is shown in Fig. 2, arranged with fragments from the 125-fragment set and 500-fragment set on horizontal and vertical lines, respectively. The recurrence of binding across a line reflects the fitness of a given fragment. Thus, line intensities were used to rank the different fragments. What is interesting is that lines across the library of the 500-fragment set (4B, 24B, 44B, 84B, 124B, …) shared a common structural motif (biaryl-ether; Fig. 2). […] It is noteworthy that this biaryl moiety is part of a previously reported Hsp70 ligand (MAL3-101).[13],[14] […] Although screening fragments as conjugates to a nucleic acid tag restricts their binding mode to a particular orientation (the orientation that will position the linker to the tag toward the outside of the binding pocket), it greatly facilitates the synthesis of the corresponding covalent adduct combining both fragments, as the same chemistry that was used to link the fragments to the tag can be used to covalently pair them. Nonetheless, the linker length and conformational bias must be identified experimentally. We reasoned that the identified fragments could be used as the starting point for a focused library covalently pairing the fragments. This would allow for supplementing the selected fragment set with new entities (near neighbours) and enriching the local diversity space around these initial hits. Such iterative processes are highly efficient in sifting through a large diversity space. Following this strategy, we designed an Hsp70-focused library of 10 000 members using 20 fragments A × 5 different linkers with different lengths and geometrical constraints × 100 fragments B. The 100-fragment set contained 90 entities that were not present in the original screen. To be viable, an iterative library synthesis approach should be leveraged on chemistry that is compatible with SPPS and can be performed by automated PNA-encoded synthesis. As shown in Scheme 1, this was achieved through the use of three orthogonal amino group masking strategies (Mtt, Fmoc, and azide) that enabled selective chemical reactions at both sites of the linker joining the fragment and the encoding site. Thus, a resin derivatized with lysine with orthogonal protecting groups (Mtt and N3) was split into 100 pools and deprotected on one end (Mtt deprotection using HFIP), and the different linkers to join both fragments were introduced by standard peptide coupling method, affording the two sites for fragment coupling protected by Fmoc and Mtt, respectively.[15] The fragments were coupled using two different chemistries: for fragments containing a carboxylic acid, DIC/HOBt was used; for fragments with an amino group, hydroxyl, or aniline, the amino-functionalized linker was first treated with 4-nitrophenylchloroformate and the resulting carbamate coupled with the fragment. The azide was next reduced and the first 100 pools were encoded with a 7mer Boc-protected PNA sequence. The resins were mixed and split to introduce the second encoding 7mer sequence followed by deprotection of Mtt and the introduction of the corresponding second fragments. The success of each fragment coupling and encoding step was verified by MALDI analysis of an analytical sample. Cleavage of the final library and hybridization afforded the spatially resolved 10 000-member Hsp70-focused library. A slide containing 4-fold redundancy of each DNA sequence randomly distributed on the array was used to have four data points for each small molecule–target interaction, thus allowing a statistical analysis of the hits. The array was screened under three different conditions: Hsp70, Hsp70 + Hsp40, and Hsp70 + ATP. […]

Hsp70 [2] = molecular target: T2, Hsp70 (Homo sapiens, UniProt P0DMV8); assay: SPR affinity measurement, biotinylated compounds immobilized on a streptavidin chip, Hsp70 analyte; format: binding; settings: compound immobilized on streptavidin chip, values in parentheses have chi2 > 10
T2 sequence (P0DMV8 whole entry): as above

Hsp90 [3] = assay: SPR affinity measurement, biotinylated compounds immobilized on a streptavidin chip, Hsp90 analyte; format: binding; settings: compound immobilized on streptavidin chip, values in parentheses have chi2 > 10
Hsp70-GST [4] = molecular target: T1, Hsp70-GST; assay: Protein pull-down with ligand immobilized on streptavidin magnetic beads, Hsp70; format: binding; settings: recombinant Hsp70-GST 300 nM, SDS PAGE
Hsp90 [5] = assay: Protein pull-down with ligand immobilized on streptavidin magnetic beads, Hsp90; format: binding; settings: recombinant Hsp90 300 nM, SDS PAGE
Hsp70 [6] = molecular target: T2, Hsp70; assay: Pull-down of Hsp70 from crude HEK cell lysates, Western blot; format: binding; settings: HEK lysate, Western blot with anti-Hsp70 antibody
carbonic anhydrase = molecular target: T3, carbonic anhydrase (Homo sapiens, UniProt P00918); assay: Pull-down from crude HEK cell lysates, Western blot for carbonic anhydrase (negative control); format: binding; settings: HEK lysate, negative control protein
T3 construct: endogenous in cells; host or cells: HEK293-T

[7] = molecular target: T4, Heat shock 70 kDa protein 1A/1B (Homo sapiens, UniProt P0DMV8); assay: Proteomic (MS-MS) analysis of pull-down from HEK crude cell lysate; format: binding; settings: Hsp71_HUMAN in pull-down from HEK crude cell lysate
T4 construct: endogenous in cells; host or cells: HEK293-T
T4 sequence (P0DMV8 whole entry): as above

Hsp70/Hsp40 = molecular target: T5, Hsp70/Hsp40 (Homo sapiens, UniProt P0DMV8); assay: Malachite Green Hsp70 ATPase assay; format: biochemical; settings: for inhibition at 1 µM: 1 molar equivalent to Hsp70 (1 μM), read-out: ATPase inhibition in dose response; for ATPase inhibition: 200 molar equivalence of inhibitor (200 μM), Hsp70/Hsp40 1 μM, ATP 1 mM
T5 construct: purchased Novus Biologicals NBC1-18367
T5 sequence (P0DMV8 whole entry): as above

Hsp70 [8] = molecular target: T2, Hsp70; assay: Fluorescence polarization displacement assay with 1-FITC; format: binding; settings: 1-FITC 25 nM, Hsp70 100 nM; R2 = 0.998; read-out: Affinity for Hsp70 by fluorescence polarization displacement (IC50)
Hsp70 [9] = molecular target: T2, Hsp70; set-up: method as in PMID 16806043; settings: read-out: affinity of Hsp70 for ligand; cited from earlier work
Hsp70 [10] = molecular target: T2, Hsp70; set-up: method as in PMID 15448148; settings: cited from earlier work

| Compound | FU microarray HSP70-GST (Hsp70-GST [1]) | Kd (Hsp70 [2]) | Kd (Hsp90 [3]) | also measured |
| --- | --- | --- | --- | --- |
| Cc1oncc1C(=O)Nc1ccc(O)c(C(=O)NCC(NC(=O)c2ccc(NC(=O)CCC(=O)c3ccc(-c4ccccc4)cc3)cc2)C(=O)NCCCCC(NC(=O)COCCOCCNC(=O)CCCCC2SCC3NC(=O)NC32)C(N)=O)c1 (stereo not drawn) [Compound 2a] | 28 653 FU | 1.58 nM | – | KD HSP90 (Hsp90 [3]): no measurable affinity; also recorded: Low binding; capture of Hsp70 on streptavidin magnetic beads (Hsp70-GST [4]): retained Hsp70; capture of Hsp90 on streptavidin magnetic beads (Hsp90 [5]): not Hsp90; retention of Hsp70 from crude cell lysates (Hsp70 [6]): retained Hsp70; retention of carbonic anhydrase from crude cell lysates (carbonic anhydrase): no carbonic anhydrase; % Protein Coverage [7]: 24.8% |
| Cc1oncc1C(=O)Nc1ccc(O)c(C(=O)NCC(NC(=O)c2ccc(NC(=O)CCC(=O)c3ccc(-c4ccccc4)cc3)cc2)C(N)=O)c1 (stereo not drawn) [Compound 2b] | – | – | – | inhibition at 1 µM (Hsp70/Hsp40): > 50%; ATPase inhibition (Hsp70/Hsp40): complete inhibition |
| CC(C(=O)Nc1cccc(C(=O)NC(CNC(=O)c2ccc3[nH]nc(Br)c3c2)C(=O)NCCCCC(NC(=O)COCCOCCNC(=O)CCCCC2SCC3NC(=O)NC32)C(N)=O)c1)c1cccc(Oc2ccccc2)c1 (stereo not drawn) [Compound 11a] | 27 941 FU | 12 nM and 12.1 nM | 5.6 nM | – |
| CSc1nnc(CCCOC(=O)NCC(NC(=O)CC2=C(C)C(=Cc3ccc([S+](C)[O-])cc3)c3ccc(F)cc32)C(=O)NCCCCC(NC(=O)COCCOCCNC(=O)CCCCC2SCC3NC(=O)NC32)C(N)=O)n1-c1ccc(Cl)cc1Cl (stereo not drawn) [Compound 4a] | 28 566 FU | 2.69 nM | 10.7 nM | – |
| COc1ccc(C=CC(=O)NCC(NC(=O)c2cccc(NS(=O)(=O)c3ccc(-c4ccccc4)cc3)c2)C(=O)NCCCCC(NC(=O)COCCOCCNC(=O)CCCCC2SCC3NC(=O)NC32)C(N)=O)cc1OC (stereo not drawn) [Compound 14a] | 28 588 FU | 2.88 nM | 52.8 nM | – |
| CSc1nnc(CCCOC(=O)NCC(NC(=O)CCC(=O)c2ccc(-c3ccccc3)cc2)C(=O)NCCCCC(NC(=O)COCCOCCNC(=O)CCCCC2SCC3NC(=O)NC32)C(N)=O)n1-c1ccc(Cl)cc1Cl (stereo not drawn) [Compound 12a] | 28 174 FU | 2.02 nM | 10.1 nM | – |
| NC(=O)C(CCCCNC(=O)C(CNC(=O)c1cccc(-c2cccnc2)c1)NC(=O)c1ccc(NC(=O)COCC(=O)N2CCCN(S(=O)(=O)c3cccc4cnccc34)CC2)cc1)NC(=O)COCCOCCNC(=O)CCCCC1SCC2NC(=O)NC21 (stereo not drawn) [Compound 5a] | 28 447 FU | 0.38 nM | 5.44 nM | – |
| COc1ccc(C=CC(=O)NCC(NC(=O)c2cccc(NC(=O)CCC(=O)c3ccc(-c4ccccc4)cc3)c2)C(=O)NCCCCC(NC(=O)COCCOCCNC(=O)CCCCC2SCC3NC(=O)NC32)C(N)=O)cc1OC (stereo not drawn) [Compound 8a] | 27 982 FU | 0.8 nM | 16.9 nM | – |
| CCC(COC(=O)NCCCCC(NC(=O)CC1=C(C)C(=Cc2ccc([S+](C)[O-])cc2)c2ccc(F)cc21)C(=O)NCCCCC(NC(=O)COCCOCCNC(=O)CCCCC1SCC2NC(=O)NC21)C(N)=O)c1ccccc1 (stereo not drawn) [Compound 13a] | 27 215 FU | 1.16 nM | 29.5 nM | – |
| Cc1ccc(/C=C/C(=O)NCC(NC(=O)c2ccc(NC(=O)CCC(=O)c3ccc(-c4ccccc4)cc3)cc2)C(N)=O)cc1 (stereo not drawn) [Compound 1b] | – | – | – | IC50 (Hsp70 [8]): 31 nM; inhibition at 1 µM (Hsp70/Hsp40): > 50%; ATPase inhibition (Hsp70/Hsp40): complete inhibition |
| NC(=O)C(CCCCNC(=O)C(CNC(=O)c1ccc2[nH]nc(Br)c2c1)NC(=O)c1cccc(NC(=O)CCC(=O)c2ccc(-c3ccccc3)cc2)c1)NC(=O)COCCOCCNC(=O)CCCCC1SCC2NC(=O)NC21 (stereo not drawn) [Compound 9a] | 29 024 FU | 0.64 nM | 14.7 nM | – |
| NC(=O)C(CCCCNC(=O)C(CCCCNC(=O)c1ccc2[nH]nc(Br)c2c1)NS(=O)(=O)c1ccc(-c2ccccc2)cc1)NC(=O)COCCOCCNC(=O)CCCCC1SCC2NC(=O)NC21 (stereo not drawn) [Compound 7a] | 24 143 FU | 1.34 nM | 3.17 nM | – |
| COc1ccc(C=CC(=O)NCC(NC(=O)c2ccc(NC(=O)COCC(=O)NC(C)COc3c(C)cccc3C)cc2)C(=O)NCCCCC(NC(=O)COCCOCCNC(=O)CCCCC2SCC3NC(=O)NC32)C(N)=O)cc1OC (stereo not drawn) [Compound 10a] | 28 961 FU | 1.88 nM | 2.97 nM | – |
| Nc1ncnc2c1ncn2[C@@H]1O[C@H](COP(=O)(O)OP(=O)(O)O)[C@@H](O)[C@H]1O [ADP] | – | – | – | Kd (Hsp70 [9]): 260 nM |
| CCCCCCN(C(=O)CCCCCN1C(=O)NC(c2ccc(-c3ccccc3)cc2)C(C(=O)OCc2ccccc2)=C1C)C(C(=O)NCCCC)c1ccc(OCC(=O)OC)c(C(=O)OC)c1 (stereo not drawn) [MAL3-101] | – | – | – | effect on Hsp70 ATPase activity (Hsp70 [10]): stimulate this activity |
| CSc1nnc(CCCOC(=O)NCCCCC(NS(=O)(=O)c2ccc(-c3ccccc3)cc2)C(=O)NCCCCC(NC(=O)COCCOCCNC(=O)CCCCC2SCC3NC(=O)NC32)C(N)=O)n1-c1ccc(Cl)cc1Cl (stereo not drawn) [Compound 6a] | 28 958 FU | 2.33 nM | 18.7 nM | – |
| Cc1ccc(C(=O)NCC(NC(=O)c2cccc(NS(=O)(=O)c3ccc(Oc4ccccc4)cc3)c2)C(=O)NCCCCC(NC(=O)COCCOCCNC(=O)CCCCC2SCC3NC(=O)NC32)C(N)=O)cc1[N+](=O)[O-] (stereo not drawn) [Compound 15a] | 28 732 FU | 1.3 nM | 35.3 nM | – |
